Results published in article PMC6368337, “GluClR-mediated inhibitory postsynaptic currents reveal targets for ivermectin and potential mechanisms of ivermectin resistance” (PLoS Pathogens, 2019).

Assays:
[1] = target: β GluClRs (Haemonchus contortus, UniProt P91730); test: Two-electrode voltage clamp in oocytes, β GluClRs; format: cell-based, H. contortus; details: EC50, oocytes, −40 mV
Protocol: (§1) cDNAs encoding the α (avr-14b) (pcDNA 3.1+) or β (pUNIV) GluClR subunits of H. contortus were nuclear injected into oocytes (NASCO, WI USA) or transfected into HEK293AD cells (CellBank Australia) using a calcium phosphate-DNA co-precipitate method. Synapse formation between neurons and HEK293 cells was promoted by co-transfecting neuroligin 2A or 1B and the cDNA encoding CD4 surface antigen was also added to the transfection mixture so as to identify transfected cells. The oocytes and HEK cells were used for experiments 2–3 days after the introduction of the cDNAs. All experiments were done at room temperature (22 ± 1°C).
Xenopus laevis oocytes were harvested by surgical incision. The oocytes were then defolliculated with 1.5 mg/ml collagenase for 2 hours. Free oocytes were rinsed with calcium-free OR-2 solution containing (in mM) 82.5 NaCl, 2 KCl, 1 MgCl2, 5 HEPES, pH 7.4 and mature stage V or VI oocytes were isolated for experiments. The DNAs coding for α and β subunits were nuclear injected into the oocytes using a Nanoliter 2000 microinjector (WPI Inc) at a ratio of (α:β), 1:0, 0:1, 1:1 and 1:50. […]
Group data were analysed in SigmaPlot 13.0 using one-way ANOVAs, where p < 0.05 was taken as the significance threshold and expressed as mean ± SEM. […] Confocal images were captured and analysed with Zen 2012 SP2 (Zeiss) software. […] Single channel recordings were analysed in QuB software. […]

[2] = test system: α GluClRs; test: IPSC recording in HEK293-neuron heteroculture, α GluClRs; format: cell-based, H. contortus; details: 5 nM IVM
Protocol: as §1
Primary neuronal cultures were prepared from cortices of E18 rat embryos, (University of Queensland Biological Services), which were triturated and plated at 100,000 cells per 18-mm poly-D-lysine-coated coverslip in DMEM with 10% fetal bovine serum. After 24 h the entire medium was replaced with Neurobasal medium that included 2% B27 and 1% GlutaMAX supplements. After one week half of this medium was replaced and the neurons were allowed to grow in vitro for 3–5 weeks before introducing the transfected HEK293 cells. Recordings of synaptic currents were done in whole-cell configuration at ‐70 mV using an Axopatch 200B amplifier (Molecular Devices), filtered at 5 kHz and digitized at 20 kHz using Clampex (pClamp 10 suite, Molecular Devices) via a Digidata 1440A digitizer.

[3] = test system: Untransfected HEK293 cells; test: Fluorescence recovery after photobleaching (FRAP), lateral membrane diffusion; details: in cell membrane
Protocol: The second experiment was aimed at determining the lateral membrane diffusion properties of IVM using the fluorescence recovery after photobleaching (FRAP) technique. After a 30-min equilibration time, 5 cells were monitored for fluorescence recovery within a bleached circular patch of membrane of 3.7 μm diameter (Fig 8C). Any bleaching and recovery of the surrounding area of the cell was measured, using a similar circular patch and used to correct the recovery rate of the membrane delineated by the bleached area. We also noted that the recovery reached 98 ± 2% of control. The time constant (τ) for recovery of 1.3 minutes was used to calculate the diffusion coefficient (D), using the radius (r) of the bleached patch, according to D = r^2/4τ. The calculated value of D was 1.1 x 10^−2 μm^2s^−1. Over the course of 1 s, the IVM-bdpy probe would traverse 0.2 μm along the membrane surface (lateral diffusion rate of 0.2 μms^−1). […] We infer that this slow lateral diffusion rate coupled to membrane partitioning are the major contributors to local increases of IVM around its target binding sites and the slow quasi-irreversible actions of IVM at GluClRs.
Membrane partitioning and FRAP experiments were performed on an LSM 710 inverted 2-photon confocal microscope equipped with a 40X water immersion objective lens (1.2 NA/280 μM WD/0.208 μM/pixel and a GFP/Alexa 488 filter set. Untransfected HEK293 cells at a confluency of 50–75% were plated onto 35-mm glass bottom dishes one day prior to experiments. The IVM-bdpy fluorophore was dissolved in 100% DMSO and stored at ‐20°C at a concentration of 24 mM.
A Mai Tai eHP 2-photon laser/760-1040 nm was used as an excitation source (power at 920 nm) for the FRAP experiments. The laser and bleaching power were set to 7% and 75% respectively. Membrane partitioning images were taken for 35 min at 0.5 Hz after replacing the cell medium (extracellular solution) with one containing the IVM-bdpy probe at a concentration of 500 nM. FRAP images were taken at a frequency of 0.5 Hz for 10 min after a 30 min equilibration period in 500 nM IVM-bdpy.

Chain of β GluClRs (P91730 19-432): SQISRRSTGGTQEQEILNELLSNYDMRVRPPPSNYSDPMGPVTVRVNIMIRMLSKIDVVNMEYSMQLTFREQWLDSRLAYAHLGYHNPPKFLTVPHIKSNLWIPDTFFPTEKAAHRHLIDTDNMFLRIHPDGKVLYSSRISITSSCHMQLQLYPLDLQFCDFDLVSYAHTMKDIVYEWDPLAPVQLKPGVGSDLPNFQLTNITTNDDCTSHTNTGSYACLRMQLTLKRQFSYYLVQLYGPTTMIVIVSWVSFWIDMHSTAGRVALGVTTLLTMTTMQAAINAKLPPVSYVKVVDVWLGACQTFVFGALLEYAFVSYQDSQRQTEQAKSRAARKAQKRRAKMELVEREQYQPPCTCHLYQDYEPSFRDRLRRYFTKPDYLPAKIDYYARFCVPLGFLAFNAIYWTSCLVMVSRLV

In the case of `CC[C@H](C)[C@H]1O[C@]2(CC[C@@H]1C)C[C@@H]1C[C@@H](C/C=C(\C)[C@@H](O[C@H]3C[C@H](OC)[C@@H](O[C@H]4C[C@H](OC)[C@@H](O)[C@H](C)O4)[C@H](C)O3)[C@@H](C)/C=C/C=C3\CO[C@@H]4[C@H](O)C(C)=C[C@@H](C(=O)O1)[C@]34O)O2` [IVM, Ivermectin], the EC50 [1] is reported as greater than 10 µM, the “IPSC activation (10–90% rise) time” value ([2]; 15 minutes) is reported as 19 ± 1 ms and the “peak IPSC amplitude” value ([2]; 15 minutes) is reported as 122 ± 39 pA. The “IPSC decay time constant” value ([2]; 15 minutes after start of application, −70 mV) was 100 ± 3 ms and the lateral diffusion rate [3] was 0.2 μms^−1.
